Reference: the supplement of paper PMC10307832

Assays:
Test in all cases: relative viability (nuclei count vs DMSO), 5 days (fraction); higher = more cells survive
Indole-3-carbinol = compound: OCc1c[nH]c2ccccc12 [Indole-3-carbinol]
Procedure, shortened: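 Lung cancer cell lines in 1536-well plates were exposed by pinning to five library-drug doses (not always all listed) √10 apart, following an overnight hold at 37 °C. MetaXpress counted Hoechst-stained nuclei from 4× images taken after 5 days without medium change. Viability is the median ratio of treated-well to vehicle-well nuclei across plates. Plates required control CV below 25% and at least one doubling.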

[1] = compound: OCc1c[nH]c2ccccc12 [Indole-3-carbinol] + Nc1ncn([C@H]2C[C@H](O)[C@@H](CO)O2)c(=O)n1 [Decitabine] (partner 2 µM)
Procedure, shortened: (§1)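 Lung cancer cell lines were pin-tool dosed in 1536-well plates on the day after seeding, with either a lone drug or a fixed anchor-drug dose plus five library-drug doses (not always all listed) in √10 steps. Nuclei were counted on 4× images after 5 days. Relative viability is the ratio of treated-well to vehicle-well nuclei counts, with each value a median of duplicate plates.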

[2] = compound: OCc1c[nH]c2ccccc12 [Indole-3-carbinol] + Nc1nc2[nH]cc(CCc3ccc(C(=O)N[C@@H](CCC(=O)O)C(=O)O)cc3)c2c(=O)[nH]1 [Pemetrexed] (partner 0.2 µM)
Procedure, shortened: as §1

[3] = compound: OCc1c[nH]c2ccccc12 [Indole-3-carbinol] + CC(=O)Nc1cccc(-n2c(=O)n(C3CC3)c(=O)c3c(Nc4ccc(I)cc4F)n(C)c(=O)c(C)c32)c1 [Trametinib] (partner 0.02 µM)
Procedure, shortened: as §1

[4] = compound: OCc1c[nH]c2ccccc12 [Indole-3-carbinol] + Cc1cc(Nc2cc(N3CCN(C)CC3)nc(Sc3ccc(NC(=O)C4CC4)cc3)n2)n[nH]1 [Tozasertib] (partner 0.1 µM)
Procedure, shortened: as §1

[5] = compound: OCc1c[nH]c2ccccc12 [Indole-3-carbinol] + O=C(CCCCCCC(=O)Nc1ccccc1)NO [Vorinostat] (partner 1 µM)
Procedure, shortened: as §1

[6] = compound: OCc1c[nH]c2ccccc12 [Indole-3-carbinol] + NC(=O)Nc1cc(-c2cccc(F)c2)sc1C(=O)N[C@H]1CCCNC1 [AZD7762] (partner 0.2 µM)
Procedure, shortened: as §1

[7] = compound: OCc1c[nH]c2ccccc12 [Indole-3-carbinol] + CC(=O)c1c(C)c2cnc(Nc3ccc(N4CCNCC4)cn3)nc2n(C2CCCC2)c1=O [Palbociclib] (partner 0.5 µM)
Procedure, shortened: as §1

[8] = compound: OCc1c[nH]c2ccccc12 [Indole-3-carbinol] + COc1cccc2cc(-c3nc([C@H]4CC[C@H](C(=O)O)CC4)n4ncnc(N)c34)[nH]c12 [OSI-027] (partner 0.5 µM)
Procedure, shortened: as §1

[9] = compound: OCc1c[nH]c2ccccc12 [Indole-3-carbinol] + O=C(c1cc(Cc2n[nH]c(=O)c3ccccc23)ccc1F)N1CCN(C(=O)C2CC2)CC1 [Olaparib] (partner 8 µM)
Procedure, shortened: as §1

[10] = compound: OCc1c[nH]c2ccccc12 [Indole-3-carbinol] + Cc1nc(Nc2ncc(C(=O)Nc3c(C)cccc3Cl)s2)cc(N2CCN(CCO)CC2)n1 [Dasatinib] (partner 0.075 µM)
Procedure, shortened: as §1

[11] = compound: OCc1c[nH]c2ccccc12 [Indole-3-carbinol] + COc1cc2c(Oc3ccc(NC(=O)C4(C(=O)Nc5ccc(F)cc5)CC4)cc3F)ccnc2cc1OCCCN1CCOCC1 [Foretinib] (partner 0.25 µM)
Procedure, shortened: as §1

[12] = compound: OCc1c[nH]c2ccccc12 [Indole-3-carbinol] + N=C(N)NC(=N)NCCc1ccccc1 [Phenformin] (partner 250 µM)
Procedure, shortened: as §1

[13] = compound: OCc1c[nH]c2ccccc12 [Indole-3-carbinol] + CCNC(=O)c1noc(-c2cc(C(C)C)c(O)cc2O)c1-c1ccc(CN2CCOCC2)cc1 [Luminespib] (partner 0.01 µM)
Procedure, shortened: as §1

Q: For NCI-H1648, which relative viability (Indole-3-carbinol; 0.253 µM) is on record?
A: 1.07

Q: And the relative viability (Indole-3-carbinol; 0.8 µM)?
A: 0.846

Q: What about the relative viability (Indole-3-carbinol; 2.53 µM) of the same cell line?
A: 0.911

Q: And the relative viability (Indole-3-carbinol; 8 µM)?
A: 0.949

Q: What about the relative viability ([1]; first compound 0.253 µM) of the same cell line?
A: 0.482

Q: What about the relative viability ([1]; first compound 0.8 µM) of the same cell line?
A: 0.434

Q: And the relative viability ([1]; first compound 2.53 µM)?
A: 0.598

Q: What about the relative viability ([1]; first compound 8 µM) of the same cell line?
A: 0.499

Q: What about the relative viability ([2]; first compound 0.253 µM) of the same cell line?
A: 0.663

Q: And the relative viability ([2]; first compound 0.8 µM)?
A: 0.745

Q: And the relative viability ([2]; first compound 2.53 µM)?
A: 0.822

Q: And the relative viability ([2]; first compound 8 µM)?
A: 0.715

Q: What about the relative viability ([3]; first compound 0.253 µM) of the same cell line?
A: 0.486

Q: And the relative viability ([3]; first compound 0.8 µM)?
A: 0.423

Q: What about the relative viability ([3]; first compound 2.53 µM) of the same cell line?
A: 0.59

Q: And the relative viability ([3]; first compound 8 µM)?
A: 0.521

Q: What about the relative viability ([4]; first compound 0.253 µM) of the same cell line?
A: 0.835

Q: What about the relative viability ([4]; first compound 0.8 µM) of the same cell line?
A: 0.488

Q: What about the relative viability ([4]; first compound 2.53 µM) of the same cell line?
A: 0.439

Q: What about the relative viability ([4]; first compound 8 µM) of the same cell line?
A: 0.473

Q: What about the relative viability ([5]; first compound 0.253 µM) of the same cell line?
A: 0.301

Q: And the relative viability ([5]; first compound 0.8 µM)?
A: 0.825

Q: And the relative viability ([5]; first compound 2.53 µM)?
A: 0.333

Q: And the relative viability ([5]; first compound 8 µM)?
A: 0.41

Q: What about the relative viability ([6]; first compound 0.253 µM) of the same cell line?
A: 0.555

Q: What about the relative viability ([6]; first compound 0.8 µM) of the same cell line?
A: 0.613

Q: What about the relative viability ([6]; first compound 2.53 µM) of the same cell line?
A: 0.773

Q: What about the relative viability ([6]; first compound 8 µM) of the same cell line?
A: 0.637

Q: And the relative viability ([7]; first compound 0.253 µM)?
A: 0.31

Q: And the relative viability ([7]; first compound 0.8 µM)?
A: 0.248

Q: And the relative viability ([7]; first compound 2.53 µM)?
A: 0.296

Q: And the relative viability ([7]; first compound 8 µM)?
A: 0.289

Q: What about the relative viability ([8]; first compound 0.253 µM) of the same cell line?
A: 0.258

Q: And the relative viability ([8]; first compound 0.8 µM)?
A: 0.235

Q: And the relative viability ([8]; first compound 2.53 µM)?
A: 0.272

Q: And the relative viability ([8]; first compound 8 µM)?
A: 0.242

Q: And the relative viability ([9]; first compound 0.253 µM)?
A: 1.27

Q: What about the relative viability ([9]; first compound 0.8 µM) of the same cell line?
A: 0.69

Q: And the relative viability ([9]; first compound 2.53 µM)?
A: 0.868

Q: What about the relative viability ([9]; first compound 8 µM) of the same cell line?
A: 0.572

Q: With SW 900 as the cell line, how does the relative viability (Indole-3-carbinol; 0.253 µM) read?
A: 0.922

Q: And the relative viability (Indole-3-carbinol; 0.8 µM)?
A: 0.772

Q: What about the relative viability (Indole-3-carbinol; 2.53 µM) of the same cell line?
A: 0.903

Q: And the relative viability (Indole-3-carbinol; 8 µM)?
A: 0.764

Q: What about the relative viability ([1]; first compound 0.253 µM) of the same cell line?
A: 0.418

Q: What about the relative viability ([1]; first compound 0.8 µM) of the same cell line?
A: 0.376

Q: What about the relative viability ([1]; first compound 2.53 µM) of the same cell line?
A: 0.483

Q: And the relative viability ([1]; first compound 8 µM)?
A: 0.405

Q: And the relative viability ([2]; first compound 0.253 µM)?
A: 0.49

Q: What about the relative viability ([2]; first compound 0.8 µM) of the same cell line?
A: 0.443

Q: What about the relative viability ([2]; first compound 2.53 µM) of the same cell line?
A: 0.519

Q: What about the relative viability ([2]; first compound 8 µM) of the same cell line?
A: 0.495

Q: What about the relative viability ([3]; first compound 0.253 µM) of the same cell line?
A: 0.866

Q: What about the relative viability ([3]; first compound 0.8 µM) of the same cell line?
A: 0.867

Q: What about the relative viability ([3]; first compound 2.53 µM) of the same cell line?
A: 0.82

Q: And the relative viability ([3]; first compound 8 µM)?
A: 0.992

Q: What about the relative viability ([10]; first compound 0.253 µM) of the same cell line?
A: 0.837

Q: And the relative viability ([10]; first compound 0.8 µM)?
A: 0.79

Q: And the relative viability ([10]; first compound 2.53 µM)?
A: 0.438

Q: What about the relative viability ([10]; first compound 8 µM) of the same cell line?
A: 0.586

Q: What about the relative viability ([4]; first compound 0.253 µM) of the same cell line?
A: 0.548

Q: What about the relative viability ([4]; first compound 0.8 µM) of the same cell line?
A: 0.726

Q: What about the relative viability ([4]; first compound 2.53 µM) of the same cell line?
A: 0.616

Q: What about the relative viability ([4]; first compound 8 µM) of the same cell line?
A: 0.548

Q: What about the relative viability ([5]; first compound 0.253 µM) of the same cell line?
A: 0.556

Q: What about the relative viability ([5]; first compound 0.8 µM) of the same cell line?
A: 0.453

Q: And the relative viability ([5]; first compound 2.53 µM)?
A: 0.573

Q: And the relative viability ([5]; first compound 8 µM)?
A: 0.622

Q: And the relative viability ([11]; first compound 0.253 µM)?
A: 0.796

Q: What about the relative viability ([11]; first compound 0.8 µM) of the same cell line?
A: 1.05

Q: And the relative viability ([11]; first compound 2.53 µM)?
A: 0.877

Q: And the relative viability ([11]; first compound 8 µM)?
A: 0.819

Q: What about the relative viability ([6]; first compound 0.253 µM) of the same cell line?
A: 0.625

Q: And the relative viability ([6]; first compound 0.8 µM)?
A: 0.619

Q: What about the relative viability ([6]; first compound 2.53 µM) of the same cell line?
A: 0.705

Q: And the relative viability ([6]; first compound 8 µM)?
A: 0.624

Q: And the relative viability ([7]; first compound 0.253 µM)?
A: 0.557

Q: And the relative viability ([7]; first compound 0.8 µM)?
A: 0.501

Q: What about the relative viability ([7]; first compound 2.53 µM) of the same cell line?
A: 0.589

Q: And the relative viability ([7]; first compound 8 µM)?
A: 0.527

Q: What about the relative viability ([8]; first compound 0.253 µM) of the same cell line?
A: 0.574

Q: What about the relative viability ([8]; first compound 0.8 µM) of the same cell line?
A: 0.706

Q: And the relative viability ([8]; first compound 2.53 µM)?
A: 0.592

Q: What about the relative viability ([8]; first compound 8 µM) of the same cell line?
A: 0.599

Q: And the relative viability ([12]; first compound 0.253 µM)?
A: 0.81

Q: What about the relative viability ([12]; first compound 0.8 µM) of the same cell line?
A: 0.634

Q: And the relative viability ([12]; first compound 2.53 µM)?
A: 0.576

Q: What about the relative viability ([12]; first compound 8 µM) of the same cell line?
A: 0.455

Q: And the relative viability ([9]; first compound 0.253 µM)?
A: 0.983

Q: And the relative viability ([9]; first compound 0.8 µM)?
A: 1.37

Q: What about the relative viability ([9]; first compound 2.53 µM) of the same cell line?
A: 0.883

Q: What about the relative viability ([9]; first compound 8 µM) of the same cell line?
A: 0.899

Q: And the relative viability ([13]; first compound 0.253 µM)?
A: 0.186

Q: And the relative viability ([13]; first compound 0.8 µM)?
A: 0.155

Q: What about the relative viability ([13]; first compound 2.53 µM) of the same cell line?
A: 0.169

Q: What about the relative viability ([13]; first compound 8 µM) of the same cell line?
A: 0.166
